# Read-outs that look alike come from different tables or passages of the source.
# Key:
# pig pancreas lipase = molecular target: T1, pig pancreas lipase (Sus scrofa, UniProt P00591); test: Inhibition of pancreas lipase, titrimetric registration of oleic acid liberated in the cleavage of triolein; format: biochemical
# T1 sequence (P00591 1-450): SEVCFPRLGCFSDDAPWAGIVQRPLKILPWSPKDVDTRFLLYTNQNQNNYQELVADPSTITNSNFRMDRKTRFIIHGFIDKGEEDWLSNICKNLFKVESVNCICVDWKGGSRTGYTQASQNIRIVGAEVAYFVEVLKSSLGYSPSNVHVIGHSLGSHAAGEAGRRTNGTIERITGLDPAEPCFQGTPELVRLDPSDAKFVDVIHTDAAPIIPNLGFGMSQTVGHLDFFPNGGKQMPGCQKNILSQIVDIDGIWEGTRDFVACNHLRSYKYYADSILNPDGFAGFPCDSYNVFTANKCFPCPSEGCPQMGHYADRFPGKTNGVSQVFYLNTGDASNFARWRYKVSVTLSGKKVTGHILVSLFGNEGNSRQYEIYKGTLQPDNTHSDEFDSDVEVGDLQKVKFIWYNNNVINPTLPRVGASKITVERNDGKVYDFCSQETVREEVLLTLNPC
# Method: To an emulsion which contains 1 mM of taurodeoxycholate, 9 mM of taurocholeate, 0.1 mM of cholesterol, 1 mM of egg lecithin, 15 mg/ml of BSA, 2 mM of Tris HCl, 100 mM of sodium chloride, 1 mM of calcium chloride and triolein as the substrate was added the compound of formula I dissolved in ethanol or dimethyl sulfoxide (10% of the emulsion volume) and the reaction was started by the addition of 100 μg (175 U) of pig pancreas lipase. The pH was held at 8 during the reaction by the addition of sodium hydroxide solution. The IC50 was calculated from the consumption of sodium hydroxide solution determined during 10 minutes. The IC50 was that concentration at which the lipase activity was inhibited to half of the maximum.
# mice = test: Acute toxicity after single oral administration to mice; format: in vivo
# [1] = pig pancreas lipase 100 μg (175 U), triolein substrate, pH 8, 10 minutes, concentration at which lipase activity was inhibited to half of the maximum, read-out: IC50 (converted)
Compound,IC50 (pig pancreas lipase),Toxicity (dose of the compound at which the animal survives) (mice),IC50 (pig pancreas lipase; [1])
"C=CC[C@@H]1C(=O)O[C@H]1CC(CCCCCCCCCCC)OC(=O)[C@H](CC(C)C)NC=O (mixture of isomers) [Example 2, 14, N-formyl-L-leucine 1-[(trans-3-allyl-4-oxo-2-oxetanyl)methyl]dodecyl ester]",33.2 nM,5000 mg/kg p.o.,
"CCCCCC[C@@H]1C(=O)O[C@H]1CC(CCCC)OC(=O)[C@H](CC(C)C)NC=O (mixture of isomers) [Example 5, N-formyl-L-leucine 1-[(trans-3-hexyl-4-oxo-2-oxetanyl]-methyl]pentyl ester]",,,503 nM
"CCCCCCCCCCCC(C[C@@H]1OC(=O)[C@H]1CCCCCC)OC(=O)[C@@H](N)CC(C)C (relative stereo) [Example 7, leucine 1-[(trans-3-hexyl-4-oxo-2-oxetanyl)methyl]dodecyl ester]",,,32100 nM
"CCCCCCCCCCC[C@H](O)C[C@@H]1OC(=O)[C@H]1CCCCCC (relative stereo) [Example 9 F.2., rac-trans-3-hexyl-4-(2-hydroxytridecyl)-2-oxetanone(2S,3S,4S:2R,3R,4R)]",,,240000 nM
"CCCCCCCCCCCC(C[C@@H]1OC(=O)[C@H]1CC)OC(=O)[C@H](CC(C)C)NC=O (single isomer, unassigned) [Example 2, 13a, N-formyl-L-leucine 1-[(trans-3-ethyl-4-oxo-2-oxetanyl)methyl]dodecyl ester]",,,15.9 nM
"CCCCCCCC/C=C\CCCCCCC[C@@H](C[C@@H]1OC(=O)[C@H]1CC)OC(=O)[C@H](CC(C)C)NC=O (single isomer, unassigned) [Example 2, 23a]",67.1 nM,2000 mg/kg p.o.,
"CCCCC/C=C\C/C=C\CCCCCCC[C@@H](C[C@@H]1OC(=O)[C@H]1CC)OC(=O)[C@H](CC(C)C)NC=O [Example 2, 21]",,,38.5 nM
"CC[C@@H]1C(=O)O[C@H]1C[C@@H](OC(=O)[C@H](CC(C)C)NC=O)c1ccc(Oc2ccccc2)cc1 [Example 2, 25a, N-formyl-(S)-leucine (R)-α-[[(2S,3S)-3-ethyl-4-oxo-2-oxetanyl]methyl]-p-phenoxybenzyl ester]",,,22 nM
"C=CCC[C@@H](C[C@@H]1OC(=O)[C@H]1CCCCCCCCCC)OC(=O)[C@H](CC(C)C)NC=O [Example 2, 34, N-formyl-L-leucine (S)-1-[[(2S,3S)-3-decyl-4-oxo-2-oxetanyl]methyl]-4-pentenyl ester]",288 nM,4000 mg/kg p.o.,
"CCCCCCCCCCCCCCCCC[C@@H](C[C@@H]1OC(=O)[C@H]1CC)OC(=O)[C@H](CC(C)C)NC=O [Example 4, 1, N-formyl-(S)-leucine (S)-1[[(2S,3S)-3-ethyl-4-oxo-2-oxetanyl]methyl]octadecyl ester]",,,210 nM
"CCCCCC[C@@H]1C(=O)O[C@H]1C[C@H](CCCC)OC(=O)[C@H](Cc1ccccc1)NC=O [Example 6, 2, N-formyl-L-phenylalanine (S)-1-[[(2S,3S)-3-hexyl-4-oxo-2-oxetanyl]methyl]-4-pentyl ester]",2320 nM,,
